Data published in US20240246918A1, “COMPOUNDS AND COMPOSITIONS AS EIF4E INHIBITORS AND THE USES THEREOF” (Ribometrix, Inc., priority 2022, published 2024).

What was measured:
human eIF4E protein = target: T1, human eIF4E protein (Homo sapiens, UniProt P06730); test: Biochemical competitive binding assay (TR-FRET competition, EDA-m7GDP-ATTO-647N probe); conditions: read-out: hEIF4E TR-FRET IC50
T1 construct: purchased Novus NBP-45314
Experimental: The potencies of compounds binding to human eIF4E protein were measured using a 384-well time-resolved fluorescence resonance energy transfer (TR-FRET) competition assay. The assay was performed in assay buffer containing 50 mM HTEPES pH 7.5, 100 mM KCl, 0.02% Tween-20, and 0.1 mg/mL bovine serum albumin (BSA). The reaction volume was 10 μL and each reaction contained 4 nM recombinant 6×HIS-tagged human EIF4E protein (Novus, NBP-45314), 5 nM EDA-m7GDP-ATTO-647N (Jena Bioscience, NU-827-647N), 2.5 nM Europium conjugated Anti-6×HIS antibody (PerkinElmer, AD0402) and varying concentrations of compound. The final DMSO concentration was […].
Compounds were prepared using 11-point, 4-fold serial dilutions in DMSO and 100 nL of diluted compounds were transferred to 384-well assay-ready plates. Recombinant human EIF4E protein at 2× final concentration (8 nM) was pre-incubated with Eu-anti-6×HIS antibody at 2× final concentration (5 nM) for 5 minutes, then 5 μL of the protein solution was added to assay-ready plates. The protein/compound mix was incubated for 15 minutes, after which 5 μL of a solution containing EDA-m7GDP-ATTO-647N probe at 2× final concentration (10 nM) was added. After a subsequent 15-minute incubation, time-resolved fluorescence of assay plates was measured using a Clariostar Plus microplate reader (BMG Labtech) and TR-FRET values were calculated by taking a ratio of the 665 to 620 wavelength signals. After normalization to the average of DMSO control and maximum inhibition control wells, concentration-response data were plotted and standard 4-parameter curve fitting (PEI Signals) was utilized to determine IC50 values.

[1] = system: COLO 205 colorectal tumor cells; test: Tumor cell viability inhibition assay (CellTiter-Glo 2.0, 72 hours); type: cell-based; conditions: COLO 205 cell viability
Experimental: The effect of compound treatment on COLO 205 tumor cell viability was assessed using cellular ATP quantification methods (Promega CellTiter-Glo® 2.0, G9241), as follows. Test compounds were prepared using 11-point, 4-fold serial dilutions in DMSO and 100 nL of diluted compounds were transferred to 384-well assay-ready plates. COLO 205 (ATCC, CCL-222) colorectal tumor cells were seeded to assay-ready plates in RPMI-1640 medium supplemented with 10% FBS at 1500 cells in a volume of 33.5 microliters per well. After 72 hours of compound treatment, cellular ATP was assessed by CellTiter-Glo® 2.0 Cell Viability Assay method, according to the manufacturer's instructions. Luminescence was measured using a Clariostar Plus microplate reader (BMG Labtech) or equivalent. After normalization to the average of DMSO control and maximum inhibition control wells, concentration-response data were plotted and standard 4-parameter curve fitting (PEI Signals) was utilized to determine IC50

T1 sequence (P06730 whole entry): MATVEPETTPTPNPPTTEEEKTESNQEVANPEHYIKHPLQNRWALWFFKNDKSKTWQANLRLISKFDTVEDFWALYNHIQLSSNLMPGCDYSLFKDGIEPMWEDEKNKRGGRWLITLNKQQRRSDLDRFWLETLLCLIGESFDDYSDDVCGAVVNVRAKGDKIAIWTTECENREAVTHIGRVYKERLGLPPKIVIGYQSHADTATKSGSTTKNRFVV

Compound | IC50 (human eIF4E protein) | IC50 ([1]; Homo sapiens, COLO 205, 72 h) | IC50 [1]
Cc1cc(-c2cc(Cl)ccc2OCCn2c(C)nc3c(c2=O)C[C@@H](N2CCC[C@@]4(C2)CC4(F)F)CC32CC2)c2scc(C(=O)O)c2n1 (single isomer, unassigned) [Compound 582] | < 0.1 µM | < 5 µM | 
Cc1cc(-c2cc(Cl)ccc2OCCn2c(C)nc3c(c2=O)CC(N2CCC(c4ccc(F)cc4)CC2)CC3)c2scc(C(=O)O)c2n1 (stereo not shown) [Compound 132] | < 0.1 µM | < 5 µM | 
Cc1cc(-c2cc(Cl)ccc2OCCn2c(C)nc3c(c2=O)C[C@@H](N2CCC[C@@]4(CN(CC(F)(F)F)CC4(F)F)C2)CC3)c2scc(C(=O)O)c2n1 (single isomer, unassigned) [Compound 514] | 0.5 to 5 µM | > 20 µM | 
[2H]C1(N2CCC(OC(F)(F)F)CC2)CCc2nc(C)n(CCOc3ccc(Cl)cc3-c3cc(C)nc4c(C(=O)O)csc34)c(=O)c2C1 (single isomer, unassigned) [Compound 362] | < 0.1 µM | < 5 µM | 
Cc1cc(-c2cc(Cl)ccc2OCCn2c(C)nc3c(c2=O)C[C@@H](N2CCC(C(F)(F)F)CC2)CC32CC2)c2scc(C(=O)O)c2n1 (single isomer, unassigned) [Compound 603] | < 0.1 µM | < 5 µM | 
Cc1cc(-c2cc(Cl)ccc2OCCn2c(C)nc3c(c2=O)C[C@H](N2CCC(n4cc(Cl)cn4)CC2)CC3)c2scc(C(=O)O)c2n1 (single isomer, unassigned) [Compound 108] | < 0.1 µM | < 5 µM | 
Cc1nc2c(c(=O)n1CCOc1ccc(Cl)cc1-c1ccnc(CC(=O)O)c1)CC(N(C)CC1CC(F)(F)C1)CC2 (stereo not shown) [Compound 118] | 0.5 to 5 µM | > 20 µM | 
Cc1cc(-c2cc(Cl)ccc2OCCn2c(C)nc3c(c2=O)C[C@H](N2CC4(CCC(F)(F)CC4)C2)CC3)c2scc(C(=O)O)c2n1 (single isomer, unassigned) [Compound 131] | < 0.1 µM | < 5 µM | 
Cc1cc(-c2cc(Cl)ccc2OCCn2c(C)nc3c(c2=O)CC(N)CC3)c2scc(C(=O)O)c2n1 (stereo not shown) [Compound 411] | < 0.1 µM | < 5 µM | 
Cc1cc(-c2cc(Cl)ccc2OCCn2c(C)nc3c(c2=O)C[C@@H](N2CCC(c4cnn(C)c4)CC2)CC3)c2scc(C(=O)O)c2n1 (single isomer, unassigned) [Compound 427] | < 0.1 µM | < 5 µM | 
Cc1cc(-c2cc(Cl)ccc2OCCn2c(C)nc3c(c2=O)C[C@H](N2CCC[C@@H](OC(F)(F)F)C2)CC3)c2scc(C(=O)O)c2n1 (single isomer, unassigned) [Compound 471] | < 0.1 µM | < 5 µM | 
Cc1cc(-c2cc(Cl)ccc2OCCn2c(C)nc3c(c2=O)C[C@@H](N2CCC4(CC2)COCCO4)CC3)c2scc(C(=O)O)c2n1 (single isomer, unassigned) [Compound 425] | < 0.1 µM | 5 to 20 µM | 
Cc1cc(-c2cc(Cl)ccc2OCCn2c(C)nc3c(c2=O)C[C@@](C)(N2CCC[C@]4(C2)CC4(F)F)CC3)c2scc(C(=O)O)c2n1 (single isomer, unassigned) [Compound 539] | < 0.1 µM | < 5 µM | 
COC1(C(F)(F)F)CC2CCC(C1)N2[C@@H]1CCc2nc(C)n(CCOc3ccc(Cl)cc3-c3cc(C)nc4c(C(=O)O)csc34)c(=O)c2C1 (single isomer, unassigned) [Compound 504] | < 0.1 µM | < 5 µM | 
Cc1cc(-c2cc(Cl)ccc2OCCn2c(C)nc3c(c2=O)C[C@@H](N2CCC(c4ccn(C)n4)CC2)CC3)c2scc(C(=O)O)c2n1 (single isomer, unassigned) [Compound 454] | < 0.1 µM | < 5 µM | 
Cc1cc(-c2cc(Cl)ccc2OCCn2c(C)nc3c(c2=O)C[C@H](N2CCC(c4nc5ccc(F)cc5s4)CC2)CC3)c2scc(C(=O)O)c2n1 (single isomer, unassigned) [Compound 593] | < 0.1 µM | < 5 µM | 
COc1cc(CN(C)C2CCc3nc(C)n(CCOc4ccc(Cl)cc4-c4cc(C)nc5c(C(=O)NS(C)(=O)=O)csc45)c(=O)c3C2)ccn1 (single isomer, unassigned) [Compound 220] | < 0.1 µM |  | < 5 µM
Cc1cc(-c2cc(Cl)ccc2OCCn2c(C)nc3c(c2=O)C[C@H](N2CCC(CC(F)(F)F)CC2)CC3)c2scc(C(=O)O)c2n1 (single isomer, unassigned) [Compound 107] | < 0.1 µM | < 5 µM | 
Cc1cc(-c2cc(Cl)ccc2OCCn2c(C)nc3c(c2=O)C[C@H](N2CCC[C@@H](c4ncccc4F)C2)CC3)c2scc(C(=O)O)c2n1 (single isomer, unassigned) [Compound 465] | < 0.1 µM | < 5 µM | 

More lines, now with the values ahead:

IC50 (human eIF4E protein) | IC50 ([1]; Homo sapiens, COLO 205, 72 h) | IC50 [1] | Compound
< 0.1 µM |  | < 5 µM | Cc1cc(-c2cc(Cl)ccc2OCCn2c(C)nc3c(c2=O)CC(CN(C)C)(N2CCC(OC(F)(F)F)CC2)CC3)c2scc(C(=O)O)c2n1 (single isomer, unassigned) [Compound 620]
< 0.1 µM |  | < 5 µM | Cc1cc(-c2cc(Cl)ccc2OCCn2c(C)nc3c(c2=O)CC(N2CCC(OC(F)(F)F)CC2)CC3)c2scc(C(=O)NS(C)(=O)=O)c2n1 (single isomer, unassigned) [Compound 105]
< 0.1 µM | < 5 µM |  | Cc1cc(-c2cc(Cl)ccc2OCCn2c(C)nc3c(c2=O)C[C@@H](N2CCC4(CC2)NC(=O)NC4=O)CC3)c2scc(C(=O)O)c2n1 (single isomer, unassigned) [Compound 431]
< 0.1 µM | < 5 µM |  | Cc1cc(-c2cc(Cl)ccc2OCCn2c(C)nc3c(c2=O)C[C@@H](N2CCC(c4ncccc4F)CC2)CC3)c2scc(C(=O)O)c2n1 (single isomer, unassigned) [Compound 445]
< 0.1 µM | < 5 µM |  | Cc1cc(-c2cc(Cl)ccc2OCCn2c(C)nc3c(c2=O)C[C@H](N2CCCCC(F)(F)C2)CC3)c2scc(C(=O)O)c2n1 (single isomer, unassigned) [Compound 469]
< 0.1 µM | < 5 µM |  | Cc1cc(-c2cc(Cl)ccc2OCCn2c(C)nc3c(c2=O)C[C@@H](N2CCC(c4ccc(F)cc4F)CC2)CC3)c2scc(C(=O)O)c2n1 (single isomer, unassigned) [Compound 419]
< 0.1 µM | < 5 µM |  | Cc1cc(-c2cc(Cl)ccc2OCCn2c(C)nc3c(c2=O)C[C@@H](N2CCC[C@@H](C(F)F)C2)CC32CC2)c2scc(C(=O)O)c2n1 (single isomer, unassigned) [Compound 609]
< 0.1 µM | < 5 µM |  | Cc1cc(-c2cc(Cl)ccc2OCCn2c(C)nc3c(c2=O)C[C@H](N2CC[C@H](OC(F)(F)F)C(C)(C)C2)CC3)c2scc(C(=O)O)c2n1 (single isomer, unassigned) [Compound 394]
< 0.1 µM | < 5 µM |  | Cc1nc2c(c(=O)n1CC#Cc1ccc(Cl)cc1-c1ccnc3c(C(=O)O)csc13)C[C@H](N1CCC[C@@]3(C1)CC3(F)F)CC2 (single isomer, unassigned) [Compound 550, 7-(5-chloro-2-(3-(6-(1,1-difluoro-5-azaspiro[2.5]octan-5-yl)-2-methyl-4-oxo-5,6,7,8-tetrahydroquinazolin-3(4H)-yl)prop-1-yn-1-yl)phenyl)thieno[3,2-b]pyridine-3-carboxylic acid]
0.1 to 0.5 µM | > 20 µM |  | Cc1cc(-c2cc(Cl)ccc2OCCn2c(C)nc3c(c2=O)C[C@@H](N2CCCC[C@H]2c2cccc(C(F)(F)F)c2)CC3)c2scc(C(=O)O)c2n1 (single isomer, unassigned) [Compound 589]
< 0.1 µM | < 5 µM |  | Cc1cc(-c2cc(Cl)ccc2OCCn2c(C)nc3c(c2=O)C[C@H](N2CCC[C@@H](C(F)F)C2)CC32CC2)c2scc(C(=O)O)c2n1 (single isomer, unassigned) [Compound 616]
< 0.1 µM | < 5 µM |  | Cc1csc([C@H]2CCCN([C@H]3CCc4nc(C)n(CCOc5ccc(Cl)cc5-c5cc(C)nc6c(C(=O)O)csc56)c(=O)c4C3)C2)n1 (single isomer, unassigned) [Compound 482]
< 0.1 µM | < 5 µM |  | Cc1cc(-c2cc(Cl)ccc2OCCn2c(C)nc3c(c2=O)C[C@H](N2CC4CCC(C2)C4OC(F)(F)F)CC3)c2scc(C(=O)O)c2n1 (single isomer, unassigned) [Compound 494]
